Source: patent US12029748B2, “Synergistic composition for maintenance of healthy balance of microflora” (KIMBERLY-CLARK WORLDWIDE, INC., priority 2017, dated 2024)
Where a SMILES comes first, the peptide text is derived from it.

What was measured:
L. crispatus and E. coli = assay: Therapeutic Effect Protocol: L. crispatus / E. coli co-culture, ratio after 36 hours; assay type: cell-based, Lactobacillus crispatus; E. coli; conditions: for Therapeutic Efficacy Results (Lactobacillus/E. coli) 0.10%: nitrogen compound 0.10 wt/vol % with 1.0 wt/vol % α methyl-D glucoside (10:1); for Therapeutic Efficacy Results (Lactobacillus/E. coli) 0.10% / Therapeutic Efficacy Results (Lactobacillus/E. coli) 0.50% / Therapeutic Efficacy Results (Lactobacillus/E. coli) 1.00%: 36 hours anaerobic co-culture, 37° C.; for Therapeutic Efficacy Results (Lactobacillus/E. coli) 0.50%: nitrogen compound 0.50 wt/vol % with 1.0 wt/vol % α methyl-D glucoside (2:1); for Therapeutic effect when ratio α methyl-D glucoside : nitrogen compound is at least about 2:1, but not at 1:1 / Therapeutic effect at ratio 2:1 and 10:1, but not at 1:1 / Therapeutic effect when ratio α methyl-D glucoside : nitrogen compound is less than 2:1 (1:1) / Therapeutic effect (ratio of Lactobacillus to E. coli greater than 2) at each concentration tested: with α methyl-D glucoside; for Therapeutic effect when ratio α methyl-D glucoside : nitrogen compound is at least about 2:1, but not at 1:1: ratio at least about 2:1, not 1:1; for Therapeutic effect at ratio 2:1 and 10:1, but not at 1:1: ratios 2:1 and 10:1, not 1:1; for Therapeutic Efficacy Results (Lactobacillus/E. coli) 1.00%: nitrogen compound 1.00 wt/vol % with 1.0 wt/vol % α methyl-D glucoside (1:1); for Therapeutic effect when ratio α methyl-D glucoside : nitrogen compound is less than 2:1 (1:1): ratio 1:1; for Therapeutic effect (ratio of Lactobacillus to E. coli greater than 2) at each concentration tested: nitrogen compound 1 wt/vol %, 0.5 wt/vol % and 0.1 wt/vol %
Procedure, shortened: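 L. crispatus and E. coli were mixed 1,000:1 (10^5-10^6 and 100-1,000 CFU per 5 mL tube) in LAPT-g medium at pH 6.5, containing 1% α-methyl-D-glucoside plus nitrogen compound at 0.1-1% w/v, in duplicate. After 36 h anaerobic incubation at 37 °C, each species was counted by selective plating (MRS anaerobic, TSA aerobic), and the L. crispatus:E. coli ratio and final pH were recorded.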

[1] = Initial pH screening of the composition; assay type: physicochemical; conditions: for I pH (initial pH), 0.10%: nitrogen compound 0.10 wt/vol % with 1.0 wt/vol % α methyl-D glucoside in medium; for I pH (initial pH), 0.50%: nitrogen compound 0.50 wt/vol % with 1.0 wt/vol % α methyl-D glucoside in medium; for I pH (initial pH), 1.00%: nitrogen compound 1.00 wt/vol % with 1.0 wt/vol % α methyl-D glucoside in medium
Procedure, shortened: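 Compounds were added to LAPT-g medium (pH adjusted to 6.5) at a final 0.1-1.0%. Solubility was judged visually by precipitate or turbidity, and insoluble compositions got no pH measurement. Initial pH was scored Low (<5.5), High (>6.5) or Pass (5.5-6.5), and only soluble Pass compositions went on to efficacy testing.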

## O=C1NC(=O)C(=O)C(=O)N1 [Alloxan]
L. crispatus and E. coli
  Therapeutic Efficacy Results (Lactobacillus/E. coli) 0.10%: 4.83
  Therapeutic Efficacy Results (Lactobacillus/E. coli) 0.50%: 1.45E+04
  Therapeutic effect when ratio α methyl-D glucoside : nitrogen compound is at least about 2:1, but not at 1:1: provided a therapeutic effect
  Therapeutic effect at ratio 2:1 and 10:1, but not at 1:1: provided a therapeutic effect
[1]
  I pH (initial pH), 0.10%: P (a Pass initial pH corresponds to the pH being at or between 5.5-6.5)
  I pH (initial pH), 0.50%: P (a Pass initial pH corresponds to the pH being at or between 5.5-6.5)
  I pH (initial pH), 1.00%: L (A Low initial pH corresponds to an initial pH being less than 5.5)

## CCC(N)C(=O)O (racemic) [DL-a-amino-n-butyric acid]
L. crispatus and E. coli
  Therapeutic Efficacy Results (Lactobacillus/E. coli) 0.10%: 0.34
  Therapeutic Efficacy Results (Lactobacillus/E. coli) 0.50%: 100
  Therapeutic Efficacy Results (Lactobacillus/E. coli) 1.00%: 4.44
  Therapeutic effect when ratio α methyl-D glucoside : nitrogen compound is less than 2:1 (1:1): provided a therapeutic effect
  Therapeutic effect when ratio α methyl-D glucoside : nitrogen compound is at least about 2:1, but not at 1:1: provided a therapeutic effect
[1]
  I pH (initial pH), 0.10%: P (a Pass initial pH corresponds to the pH being at or between 5.5-6.5)
  I pH (initial pH), 0.50%: P (a Pass initial pH corresponds to the pH being at or between 5.5-6.5)
  I pH (initial pH), 1.00%: P (a Pass initial pH corresponds to the pH being at or between 5.5-6.5)

## N[C@@H](CS)C(=O)O [L-Cysteine]
L. crispatus and E. coli
  Therapeutic Efficacy Results (Lactobacillus/E. coli) 0.10%: >299
  Therapeutic Efficacy Results (Lactobacillus/E. coli) 0.50%: 28.38
  Therapeutic Efficacy Results (Lactobacillus/E. coli) 1.00%: 10.44
  Therapeutic effect (ratio of Lactobacillus to E. coli greater than 2) at each concentration tested: provided a therapeutic effect
  Therapeutic effect when ratio α methyl-D glucoside : nitrogen compound is less than 2:1 (1:1): provided a therapeutic effect
[1]
  I pH (initial pH), 0.10%: P (a Pass initial pH corresponds to the pH being at or between 5.5-6.5)
  I pH (initial pH), 0.50%: P (a Pass initial pH corresponds to the pH being at or between 5.5-6.5)
  I pH (initial pH), 1.00%: P (a Pass initial pH corresponds to the pH being at or between 5.5-6.5)

## CC(=O)N[C@H]1C(O)O[C@H](CO)[C@@H](O)[C@@H]1O (stereo partly drawn) [N-Acetyl-D-Glucosamine]
L. crispatus and E. coli
  Therapeutic Efficacy Results (Lactobacillus/E. coli) 0.10%: 8.33
  Therapeutic Efficacy Results (Lactobacillus/E. coli) 0.50%: 211
  Therapeutic Efficacy Results (Lactobacillus/E. coli) 1.00%: 7.00E+06
  Therapeutic effect (ratio of Lactobacillus to E. coli greater than 2) at each concentration tested: provided a therapeutic effect
  Therapeutic effect when ratio α methyl-D glucoside : nitrogen compound is less than 2:1 (1:1): provided a therapeutic effect
[1]
  I pH (initial pH), 0.10%: P (a Pass initial pH corresponds to the pH being at or between 5.5-6.5)
  I pH (initial pH), 0.50%: P (a Pass initial pH corresponds to the pH being at or between 5.5-6.5)
  I pH (initial pH), 1.00%: P (a Pass initial pH corresponds to the pH being at or between 5.5-6.5)

## NCCCC[C@H](N)C(=O)O [L-Lysine]
L. crispatus and E. coli
  Therapeutic Efficacy Results (Lactobacillus/E. coli) 0.10%: >141
  Therapeutic Efficacy Results (Lactobacillus/E. coli) 0.50%: 1.93
  Therapeutic Efficacy Results (Lactobacillus/E. coli) 1.00%: 0.42
  Therapeutic effect when ratio α methyl-D glucoside : nitrogen compound is at least about 2:1, but not at 1:1: provided a therapeutic effect
[1]
  I pH (initial pH), 0.10%: P (a Pass initial pH corresponds to the pH being at or between 5.5-6.5)
  I pH (initial pH), 0.50%: P (a Pass initial pH corresponds to the pH being at or between 5.5-6.5)
  I pH (initial pH), 1.00%: P (a Pass initial pH corresponds to the pH being at or between 5.5-6.5)

## NC(=O)[C@H]1O[C@@H](O)[C@H](O)[C@@H](O)[C@@H]1O [D-glucoronamide]
L. crispatus and E. coli
  Therapeutic Efficacy Results (Lactobacillus/E. coli) 0.10%: >122
  Therapeutic Efficacy Results (Lactobacillus/E. coli) 0.50%: 6.84E+03
  Therapeutic Efficacy Results (Lactobacillus/E. coli) 1.00%: 1.6
  Therapeutic effect when ratio α methyl-D glucoside : nitrogen compound is at least about 2:1, but not at 1:1: provided a therapeutic effect
  Therapeutic effect at ratio 2:1 and 10:1, but not at 1:1: provided a therapeutic effect
[1]
  I pH (initial pH), 0.10%: P (a Pass initial pH corresponds to the pH being at or between 5.5-6.5)
  I pH (initial pH), 0.50%: P (a Pass initial pH corresponds to the pH being at or between 5.5-6.5)
  I pH (initial pH), 1.00%: P (a Pass initial pH corresponds to the pH being at or between 5.5-6.5)

## NCC(=O)N[C@@H](CCC(=O)O)C(=O)O [Gly-Glu] (H-Gly-Glu-OH)
L. crispatus and E. coli
  Therapeutic Efficacy Results (Lactobacillus/E. coli) 0.10%: 6.83
  Therapeutic effect when ratio α methyl-D glucoside : nitrogen compound is at least about 2:1, but not at 1:1: provided a therapeutic effect
[1]
  I pH (initial pH), 0.10%: P (a Pass initial pH corresponds to the pH being at or between 5.5-6.5)
  I pH (initial pH), 0.50%: L (A Low initial pH corresponds to an initial pH being less than 5.5)
  I pH (initial pH), 1.00%: L (A Low initial pH corresponds to an initial pH being less than 5.5)

## c1cncnc1 [Pyrimidine]
L. crispatus and E. coli
  Therapeutic Efficacy Results (Lactobacillus/E. coli) 0.10%: 245
  Therapeutic Efficacy Results (Lactobacillus/E. coli) 0.50%: >4760
  Therapeutic Efficacy Results (Lactobacillus/E. coli) 1.00%: 4.05
  Therapeutic effect (ratio of Lactobacillus to E. coli greater than 2) at each concentration tested: provided a therapeutic effect
  Therapeutic effect when ratio α methyl-D glucoside : nitrogen compound is less than 2:1 (1:1): provided a therapeutic effect
[1]
  I pH (initial pH), 0.10%: P (a Pass initial pH corresponds to the pH being at or between 5.5-6.5)
  I pH (initial pH), 0.50%: P (a Pass initial pH corresponds to the pH being at or between 5.5-6.5)
  I pH (initial pH), 1.00%: P (a Pass initial pH corresponds to the pH being at or between 5.5-6.5)

## Cl.N[C@H]1C(O)O[C@H](CO)[C@@H](O)[C@@H]1O (stereo partly drawn) [D-Glucosamine HCL]
L. crispatus and E. coli
  Therapeutic Efficacy Results (Lactobacillus/E. coli) 0.10%: 77.8
  Therapeutic Efficacy Results (Lactobacillus/E. coli) 0.50%: 6.00E+06
  Therapeutic Efficacy Results (Lactobacillus/E. coli) 1.00%: 454
  Therapeutic effect (ratio of Lactobacillus to E. coli greater than 2) at each concentration tested: provided a therapeutic effect
  Therapeutic effect when ratio α methyl-D glucoside : nitrogen compound is less than 2:1 (1:1): provided a therapeutic effect
[1]
  I pH (initial pH), 0.10%: P (a Pass initial pH corresponds to the pH being at or between 5.5-6.5)
  I pH (initial pH), 0.50%: P (a Pass initial pH corresponds to the pH being at or between 5.5-6.5)
  I pH (initial pH), 1.00%: P (a Pass initial pH corresponds to the pH being at or between 5.5-6.5)

## C[C@H](NC(=O)CN)C(=O)O [Glycyl-Alanine] (H-Gly-Ala-OH)
L. crispatus and E. coli
  Therapeutic Efficacy Results (Lactobacillus/E. coli) 0.10%: 0.803
  Therapeutic Efficacy Results (Lactobacillus/E. coli) 0.50%: 220
  Therapeutic Efficacy Results (Lactobacillus/E. coli) 1.00%: 1.49
  Therapeutic effect when ratio α methyl-D glucoside : nitrogen compound is at least about 2:1, but not at 1:1: provided a therapeutic effect
[1]
  I pH (initial pH), 0.10%: P (a Pass initial pH corresponds to the pH being at or between 5.5-6.5)
  I pH (initial pH), 0.50%: P (a Pass initial pH corresponds to the pH being at or between 5.5-6.5)
  I pH (initial pH), 1.00%: P (a Pass initial pH corresponds to the pH being at or between 5.5-6.5)

## NO [Hydroxylamine]
L. crispatus and E. coli
  Therapeutic Efficacy Results (Lactobacillus/E. coli) 0.10%: 0.20
[1]
  I pH (initial pH), 0.10%: H (a High initial pH corresponds to an initial pH being greater than 6.5)
  I pH (initial pH), 0.50%: H (a High initial pH corresponds to an initial pH being greater than 6.5)
  I pH (initial pH), 1.00%: H (a High initial pH corresponds to an initial pH being greater than 6.5)

## CSCC[C@H](N)C(=O)O [L-Methionine]
L. crispatus and E. coli
  Therapeutic Efficacy Results (Lactobacillus/E. coli) 0.10%: >1.71E+05
  Therapeutic Efficacy Results (Lactobacillus/E. coli) 0.50%: 0.78
  Therapeutic Efficacy Results (Lactobacillus/E. coli) 1.00%: 0.75
  Therapeutic effect when ratio α methyl-D glucoside : nitrogen compound is at least about 2:1, but not at 1:1: provided a therapeutic effect
[1]
  I pH (initial pH), 0.10%: P (a Pass initial pH corresponds to the pH being at or between 5.5-6.5)
  I pH (initial pH), 0.50%: P (a Pass initial pH corresponds to the pH being at or between 5.5-6.5)
  I pH (initial pH), 1.00%: P (a Pass initial pH corresponds to the pH being at or between 5.5-6.5)

## NCC(=O)N[C@@H](CCC(N)=O)C(=O)O.O [Gly-Gln] (H-Gly-Gln-OH)
L. crispatus and E. coli
  Therapeutic Efficacy Results (Lactobacillus/E. coli) 0.10%: 8.57
  Therapeutic Efficacy Results (Lactobacillus/E. coli) 0.50%: >189
  Therapeutic Efficacy Results (Lactobacillus/E. coli) 1.00%: 0.38
  Therapeutic effect when ratio α methyl-D glucoside : nitrogen compound is at least about 2:1, but not at 1:1: provided a therapeutic effect
  Therapeutic effect at ratio 2:1 and 10:1, but not at 1:1: provided a therapeutic effect
[1]
  I pH (initial pH), 0.10%: P (a Pass initial pH corresponds to the pH being at or between 5.5-6.5)
  I pH (initial pH), 0.50%: P (a Pass initial pH corresponds to the pH being at or between 5.5-6.5)
  I pH (initial pH), 1.00%: P (a Pass initial pH corresponds to the pH being at or between 5.5-6.5)

## OC[C@H]1O[C@@H](n2cnc3c(O)ncnc32)[C@H](O)[C@@H]1O [Inosine]
L. crispatus and E. coli
  Therapeutic Efficacy Results (Lactobacillus/E. coli) 0.10%: 2.75E+04
  Therapeutic Efficacy Results (Lactobacillus/E. coli) 0.50%: 226
  Therapeutic Efficacy Results (Lactobacillus/E. coli) 1.00%: 0.45
  Therapeutic effect when ratio α methyl-D glucoside : nitrogen compound is at least about 2:1, but not at 1:1: provided a therapeutic effect
  Therapeutic effect at ratio 2:1 and 10:1, but not at 1:1: provided a therapeutic effect
[1]
  I pH (initial pH), 0.10%: P (a Pass initial pH corresponds to the pH being at or between 5.5-6.5)
  I pH (initial pH), 0.50%: P (a Pass initial pH corresponds to the pH being at or between 5.5-6.5)
  I pH (initial pH), 1.00%: P (a Pass initial pH corresponds to the pH being at or between 5.5-6.5)
